Laboratory results published in patent US8124647B2 (priority 2002, dated 2012).
Like-named read-outs stand apart in the source and are kept apart here.

Key:
[1] = target: T1, human androgen receptor (Homo sapiens, UniProt P10275); assay: androgenic activity (EC50 and intrinsic activity), transactivation bioassay in CHO-AR-pMMTV-LUC cells (Table 4); format: cell-based
T1 construct: expressed in transfected cells; host or cells: CHO cells, cell line CHO-AR-pMMTV-LUC 1G12-A5-CA
T1 sequence (P10275 1-920): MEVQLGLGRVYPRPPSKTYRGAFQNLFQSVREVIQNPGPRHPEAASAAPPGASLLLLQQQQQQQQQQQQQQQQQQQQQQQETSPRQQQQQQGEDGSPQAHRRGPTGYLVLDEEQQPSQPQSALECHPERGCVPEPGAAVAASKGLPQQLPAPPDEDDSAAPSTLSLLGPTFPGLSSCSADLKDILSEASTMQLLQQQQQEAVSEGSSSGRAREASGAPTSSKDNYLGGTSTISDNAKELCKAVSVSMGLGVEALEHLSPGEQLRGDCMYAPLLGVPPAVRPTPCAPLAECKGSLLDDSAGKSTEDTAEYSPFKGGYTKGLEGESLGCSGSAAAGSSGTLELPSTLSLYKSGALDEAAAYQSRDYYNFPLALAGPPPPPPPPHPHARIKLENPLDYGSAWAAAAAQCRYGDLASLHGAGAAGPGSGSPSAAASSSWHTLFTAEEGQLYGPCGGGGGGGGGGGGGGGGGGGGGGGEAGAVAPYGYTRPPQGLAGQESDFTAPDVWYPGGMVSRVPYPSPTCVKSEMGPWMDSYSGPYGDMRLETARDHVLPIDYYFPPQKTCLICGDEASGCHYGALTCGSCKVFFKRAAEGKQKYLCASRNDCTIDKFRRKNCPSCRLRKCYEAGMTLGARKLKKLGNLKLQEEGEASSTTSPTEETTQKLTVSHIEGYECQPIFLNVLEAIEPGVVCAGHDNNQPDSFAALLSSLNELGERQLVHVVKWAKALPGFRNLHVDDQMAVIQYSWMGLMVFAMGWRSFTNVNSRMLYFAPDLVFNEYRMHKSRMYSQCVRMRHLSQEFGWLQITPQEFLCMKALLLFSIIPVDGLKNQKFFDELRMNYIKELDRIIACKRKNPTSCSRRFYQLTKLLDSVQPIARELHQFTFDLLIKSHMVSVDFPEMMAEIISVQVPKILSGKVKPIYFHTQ
Experimental: (§1) Compounds were tested for their Androgen Receptor activity in a transactivation assay and in a binding assay.
(§2) The (anti-)androgenic activity of test compounds (EC50 and intrinsic activity) was determined in an in vitro bioassay of Chinese hamster ovary (CHO) cells stably transfected with the human androgen receptor expression plasmid and a reporter plasmid in which the MMTV-promoter is linked to the luciferase reporter gene. The cell-line CHO-AR-pMMTV-LUC 1G12-A5-CA is described in Schoonen et al. (2000), Journal of Steroid Biochemistry and Molecular Biology 74(4):213-222. The antiandrogenic activity of a test compound was determined by the inhibition of the transactivation via the androgen receptor of the enzyme luciferase in the presence of 1 nM DHT (5α-dihydrotestosterone, 17β-hydroxy-5α-androstan-3-one). Intrinsic activity of antiandrogenic activity was determined in the presence of the reference antiandrogen 2-Hydroxy-2-methyl-N-(4-nitro-3-trifluoromethyl-phenyl)-propionamide(Hydroxyflutamide), and set at 100%. For androgenic activity, maximal intrinsic activity in the presence of 100 nM DHT was set at 100%.

[2] = target: T1, human androgen receptor; assay: cell-based; conditions: in the presence of 1 nM DHT
Experimental: as §1, §2

[3] = target: T1, human androgen receptor; assay: androgenic activity (EC50, potency, efficacy), transactivation bioassay in CHO-AR-pMMTV-LUC cells in the presence of 0.1 μmol/l onapristone (Table 5); format: cell-based; conditions: for Emax: read-out: ago efficacy; for ago potency: potency expressed as percentage of DHT activity, in the presence of 0.1 μmol/l onapristone
Experimental: The androgenic activity (EC50, potency, and efficacy) of the compounds in Table 5 was determined in an in vitro bioassay of Chinese hamster ovary (CHO) cells stably transfected with the human androgen receptor expression plasmid and a reporter plasmid in which the MMTV promoter is linked to the luciferase reporter gene. The cell line CHO-AR-pMMTV-LUC 1G12-A5-CA is described in Schoonen et al. (J. Steroid Biochem. Moles. Biol. […]; 74: 213-222). The androgen receptor activity of compounds was determined in the presence of 0.1 μmol/l onapristone. The maximal efficacy in the presence of 100 nmol/l DHT was set as 100%. The potencies are expressed as percentage of DHT activity.

[4] = androgenic activity, read-out: ago EC50
[5] = antiandrogenic activity, read-out: ant EC50
[6] = maximal intrinsic activity, activity in the presence of 100 nM DHT set at 1.00, CHO-AR-pMMTV-LUC cells, 0.1 μmol/l onapristone

COc1ccc2c(Sc3ccccc3[N+](=O)[O-])cn(Cc3cc(F)cc(F)c3)c2c1 [Compound 63, 1-(3,5-Difluoro-benzyl)-6-methoxy-3-(2-nitro-phenylsulfanyl)-1H-indole] gave an EC50 [1, 4] of under 5 nM and an EC50 [2, 5] of over 10000 nM.
In the case of COc1ccc2c([S+]([O-])c3ccccc3[N+](=O)[O-])cn(Cc3cc(F)cc(F)c3)c2c1 (centres unmarked) [Compound 64, 1-(3,5-Difluoro-benzyl)-6-methoxy-3-(2-nitro-benzenesulfinyl)-1H-indole], the EC50 [1, 4] is reported as over 10000 nM and the EC50 [2, 5] is reported as under 1000 nM.
COc1ccc2c(Sc3ccccn3)cn(Cc3cc(F)cc(F)c3)c2c1 [Compound 65, 1-(3,5-Difluoro-benzyl)-6-methoxy-3-(pyridin-2-ylsulfanyl)-1H-indole] showed an EC50 [1, 4] of 5 to 100 nM and an EC50 [2, 5] of over 10000 nM.
In the case of COc1ccc2c(Sc3cccc[n+]3[O-])cn(Cc3cc(F)cc(F)c3)c2c1 [Compound 66], the EC50 [1, 4] is reported as under 1000 nM and the EC50 [2, 5] is reported as 5 to 100 nM.
With COc1ccc2c(Sc3ccccc3[N+](=O)[O-])cn(Cc3cccc(Cl)c3)c2c1 [Compound 67] the EC50 [1, 4] was 5 to 100 nM and the EC50 [2, 5] was over 10000 nM.
For COc1ccc2c(Sc3ccccc3[N+](=O)[O-])cn(Cc3cccc(C#N)c3)c2c1 [Compound 68], the EC50 [1, 4] was under 5 nM and the EC50 [2, 5] was over 10000 nM.
COc1ccc2c(Sc3ccccc3[N+](=O)[O-])cn(Cc3cc(F)cc(C(F)(F)F)c3)c2c1 [Compound 69] gave an EC50 [1, 4] of 5 to 100 nM and an EC50 [2, 5] of over 10000 nM.
With COc1ccc2c(Sc3ccccc3[N+](=O)[O-])cn(Cc3cc(F)ccc3C(F)(F)F)c2c1 [Compound 70] the EC50 [1, 4] was 5 to 100 nM and the EC50 [2, 5] was over 10000 nM.
With COc1ccc2c(Sc3ccccc3[N+](=O)[O-])cn(Cc3cccc(F)c3)c2c1 [Compound 71] the EC50 [1, 4] was under 5 nM and the EC50 [2, 5] was over 10000 nM.
In the case of COc1cccc(Cn2cc(Sc3ccccc3[N+](=O)[O-])c3ccc(OC)cc32)c1 [Compound 72], the EC50 [1, 4] is reported as 5 to 100 nM and the EC50 [2, 5] is reported as over 10000 nM.
COc1ccc2c(Sc3ccccc3[N+](=O)[O-])cn(Cc3cccc(C)c3)c2c1 [Compound 73] gave an EC50 [1, 4] of 5 to 100 nM and an EC50 [2, 5] of over 10000 nM.
COc1ccc2c(Sc3ccccc3[N+](=O)[O-])cn(Cc3cccc([N+](=O)[O-])c3)c2c1 [Compound 74] gave an EC50 ([1]; ago EC50, androgenic activity) of under 5 nM and an EC50 ([2]; ant EC50, antiandrogenic activity) of over 10000 nM.
COc1ccc2c(Sc3ccccc3[N+](=O)[O-])cn(Cc3cccnc3)c2c1 [Compound 75] gave an EC50 [1, 4] of under 5 nM and an EC50 [2, 5] of over 10000 nM.
In the case of COc1ccc2c(Sc3ccccc3[N+](=O)[O-])cn(Cc3ccc(Cl)c(C(F)(F)F)c3)c2c1 [Compound 76], the EC50 [1, 4] is reported as under 1000 nM and the EC50 [2, 5] is reported as over 10000 nM.
For COc1ccc2c(Sc3ccccc3[N+](=O)[O-])cn(Cc3cccc(OC(F)(F)F)c3)c2c1 [Compound 77], the EC50 [1, 4] was 5 to 100 nM and the EC50 [2, 5] was over 10000 nM.
COc1ccc2c(Sc3ccccc3[N+](=O)[O-])cn(Cc3cccc(C(F)(F)F)c3)c2c1 [Compound 78] gave an EC50 [1, 4] of 5 to 100 nM and an EC50 [2, 5] of over 10000 nM.
Work on COc1ccc2c(Sc3ccccc3[N+](=O)[O-])cn(Cc3csc(C)n3)c2c1 [Compound 79] yielded an EC50 [1, 4] of 5 to 100 nM and an EC50 [2, 5] of over 10000 nM.
In the case of COc1ccc2c(Sc3ccccc3[N+](=O)[O-])cn(Cc3c(C)noc3C)c2c1 [Compound 80], the EC50 [1, 4] is reported as under 1000 nM and the EC50 [2, 5] is reported as under 1000 nM.
COc1ccc2c(Sc3ccccc3[N+](=O)[O-])cn(Cc3ccc(Cl)cc3)c2c1 [Compound 81] showed an EC50 [1, 4] of under 1000 nM and an EC50 [2, 5] of under 5 nM.
Work on COc1ccc2c(Sc3ccccc3[N+](=O)[O-])cn(Cc3ccc(C#N)cc3)c2c1 [Compound 82] yielded an EC50 [1, 4] of 5 to 100 nM and an EC50 [2, 5] of over 10000 nM.
With COc1ccc2c(Sc3ccccc3[N+](=O)[O-])cn(Cc3ccc(F)cc3)c2c1 [Compound 83] the EC50 [1, 4] was 5 to 100 nM and the EC50 [2, 5] was over 10000 nM.
Work on COc1ccc(Cn2cc(Sc3ccccc3[N+](=O)[O-])c3ccc(OC)cc32)cc1 [Compound 84] yielded an EC50 [1, 4] of under 1000 nM and an EC50 [2, 5] of 1000 to 10000 nM.
Work on COc1ccc2c(Sc3ccccc3[N+](=O)[O-])cn(Cc3ccc(C)cc3)c2c1 [Compound 85] yielded an EC50 [1, 4] of under 1000 nM and an EC50 [2, 5] of over 10000 nM.
With COc1ccc2c(Sc3ccccc3[N+](=O)[O-])cn(Cc3cnc(Cl)s3)c2c1 [Compound 87] the EC50 [1, 4] was 5 to 100 nM and the EC50 [2, 5] was over 10000 nM.
Work on COc1ccc2c(Sc3ccccc3[N+](=O)[O-])cn(Cc3ccc(Cl)s3)c2c1 [Compound 88] yielded an EC50 [1, 4] of 5 to 100 nM and an EC50 [2, 5] of over 10000 nM.
COc1ccc2c(Sc3ccccc3[N+](=O)[O-])cn(CC3CCCCC3)c2c1 [Compound 89] was tested, and the EC50 [1, 4] was 5 to 100 nM and the EC50 [2, 5] was under 5 nM.
O=[N+]([O-])c1ccccc1Sc1cn(Cc2ccccc2)c2ccccc12 [Compound 90] showed an EC50 [1, 4] of under 1000 nM and an EC50 [2, 5] of over 10000 nM.
COc1ccc2c(c1)c(Sc1ccccc1[N+](=O)[O-])cn2Cc1ccccc1 [Compound 91] showed an EC50 [1, 4] of over 10000 nM and an EC50 [2, 5] of 1000 to 10000 nM.
COc1ccc2c(Sc3ccccc3[N+](=O)[O-])cn(Cc3ccccc3)c2c1 [Compound 92] gave an EC50 [1, 4] of under 5 nM and an EC50 [2, 5] of over 10000 nM.
For COc1ccc2c(Sc3ccccc3[N+](=O)[O-])cn(Cc3ccncc3)c2c1 [Compound 93, 6-Methoxy-3-(2-nitro-phenylsulfanyl)-1-pyridin-4-ylmethyl-1H-indole], the Emax [3, 6] was 50 to 80% and the ago potency ([3]; CHO-AR-pMMTV-LUC cells) was “± (between 0.1% and 1%)”.
With COc1ccc2c(Sc3ccccc3[N+](=O)[O-])cn(Cc3cc(F)c(F)c(F)c3)c2c1 [Compound 94, 6-Methoxy-3-(2-nitro-phenylsulfanyl)-1-(3,4,5-trifluoro-benzyl)-1H-indole] the Emax [3, 6] was over 80% and the ago potency ([3]; CHO-AR-pMMTV-LUC cells) was “+ (between 1% and 5%)”.
For COc1ccc2c(Sc3ccccc3[N+](=O)[O-])cn(Cc3cc(F)cc(F)c3F)c2c1 [Compound 95, 6-Methoxy-3-(2-nitro-phenylsulfanyl)-1-(2,3,5-trifluoro-benzyl)-1H-indole], the Emax [3, 6] was over 80% and the ago potency ([3]; CHO-AR-pMMTV-LUC cells) was “± (between 0.1% and 1%)”.
In the case of COc1ccc2c(Sc3ccccc3[N+](=O)[O-])cn(Cc3ccc(Cl)nc3)c2c1 [Compound 96, 1-(6-Chloro-pyridin-3-ylmethyl)-6-methoxy-3-(2-nitro-phenylsulfanyl)-1H-indole], the Emax [3, 6] is reported as 20 to 50% and the ago potency ([3]; CHO-AR-pMMTV-LUC cells) is reported as “± (between 0.1% and 1%)”.
O=C(CF)Nc1ccc2c(Sc3ccccc3[N+](=O)[O-])cn(Cc3cc(F)cc(F)c3)c2c1 [Compound 97, N-[1-(3,5-Difluoro-benzyl)-3-(2-nitro-phenylsulfanyl)-1H-indol-6-yl]-2-fluoro-acetamide] was tested, and the ago potency ([3]; CHO-AR-pMMTV-LUC cells) was “+ (between 1% and 5%)” and the Emax [3] was over 80%.
O=C(Nc1ccc2c(Sc3ccccc3[N+](=O)[O-])cn(Cc3cc(F)cc(F)c3)c2c1)C(F)F [Compound 98, N-[1-(3,5-Difluoro-benzyl)-3-(2-nitro-phenylsulfanyl)-1H-indol-6-yl]-2,2-difluoro-acetamide] was tested, and the Emax [3, 6] was 50 to 80% and the ago potency ([3]; CHO-AR-pMMTV-LUC cells) was “++ (>5%)”.
In the case of CCC(=O)Nc1ccc2c(Sc3ccccc3[N+](=O)[O-])cn(Cc3cc(F)cc(F)c3)c2c1 [Compound 99, N-[1-(3,5-Difluoro-benzyl)-3-(2-nitro-phenylsulfanyl)-1H-indol-6-yl]-propionamide], the Emax [3, 6] is reported as 50 to 80% and the ago potency ([3]; CHO-AR-pMMTV-LUC cells) is reported as “± (between 0.1% and 1%)”.
With O=C(CF)Nc1ccc2c(Sc3ccccc3[N+](=O)[O-])cn(Cc3ccccn3)c2c1 [Compound 100, 2-Fluoro-N-[3-(2-nitro-phenylsulfanyl)-1-pyridin-2-ylmethyl-1H-indol-6-yl]-acetamide] the ago potency ([3]; CHO-AR-pMMTV-LUC cells) was “+ (between 1% and 5%)” and the Emax [3] was over 80%.
